Test results: US12077503B2, “Substituted cyclic amides and their use as herbicides” (FMC CORPORATION, priority 2015, dated 2024)

How the values were obtained:
Assay type in all cases: in vivo
[1] = tested on: velvetleaf (Abutilon theophrasti); experiment: Test G Post-Emergence Protocol; details: Abutilon theophrasti, post-emergence, 312 h, read-out: Velvetleaf damage rating; for pest or weed control at 15.625 g/ha: 15.625 g ai/ha, evaluated after 13 days (100=total damage to plant; 0=no damage to plant); for pest or weed control at 62.5 g/ha: 62.5 g ai/ha; for pest or weed control at 62.5 g/ha / pest or weed control at 250 g/ha: evaluated after 13 days, 100=total damage to plant, 0=no damage to plant; for pest or weed control at 250 g/ha: 250 g ai/ha
Method in brief: (§1)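 Foliar application was made 8 days after sowing, using an aqueous spray of the active in acetone/water (50:50) with 0.5% Tween 20, at doses of 15.625, 62.5 or 250 g/ha. Injury was assessed 13 days later, where 100 meant the plant was fully damaged.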

[2] = tested on: giant foxtail (Setaria faberi); experiment: Test G Post-Emergence Protocol; details: Setaria faberi, post-emergence, 312 h, read-out: Foxtail, Giant damage rating; for pest or weed control at 15.625 g/ha: 15.625 g ai/ha, evaluated after 13 days (100=total damage to plant; 0=no damage to plant); for pest or weed control at 62.5 g/ha: 62.5 g ai/ha; for pest or weed control at 62.5 g/ha / pest or weed control at 250 g/ha: evaluated after 13 days, 100=total damage to plant, 0=no damage to plant; for pest or weed control at 250 g/ha: 250 g ai/ha
Method in brief: as §1

[3] = tested on: barnyardgrass (Echinochloa crus-galli); experiment: Test G Post-Emergence Protocol; details: Echinochloa crus-galli, post-emergence, 312 h, read-out: Barnyardgrass damage rating; for pest or weed control at 15.625 g/ha: 15.625 g ai/ha, evaluated after 13 days (100=total damage to plant; 0=no damage to plant); for pest or weed control at 62.5 g/ha: 62.5 g ai/ha; for pest or weed control at 62.5 g/ha / pest or weed control at 250 g/ha: evaluated after 13 days, 100=total damage to plant, 0=no damage to plant; for pest or weed control at 250 g/ha: 250 g ai/ha
Method in brief: as §1

[4] = tested on: ivy-leaved morning glory (Ipomoea hederacea); experiment: Test G Post-Emergence Protocol; details: Ipomoea, post-emergence, 312 h, read-out: Morningglory, Ivy-leaved damage rating; for pest or weed control at 15.625 g/ha: 15.625 g ai/ha, evaluated after 13 days (100=total damage to plant; 0=no damage to plant); for pest or weed control at 62.5 g/ha: 62.5 g ai/ha; for pest or weed control at 62.5 g/ha / pest or weed control at 250 g/ha: evaluated after 13 days, 100=total damage to plant, 0=no damage to plant; for pest or weed control at 250 g/ha: 250 g ai/ha
Method in brief: as §1

[5] = tested on: redroot pigweed (Amaranthus retroflexus); experiment: Test G Post-Emergence Protocol; details: Amaranthus retroflexus, post-emergence, 312 h, read-out: Pigweed, Redroot damage rating; for pest or weed control at 15.625 g/ha: 15.625 g ai/ha, evaluated after 13 days (100=total damage to plant; 0=no damage to plant); for pest or weed control at 62.5 g/ha: 62.5 g ai/ha; for pest or weed control at 62.5 g/ha / pest or weed control at 250 g/ha: evaluated after 13 days, 100=total damage to plant, 0=no damage to plant; for pest or weed control at 250 g/ha: 250 g ai/ha
Method in brief: as §1

corn (Zea mays) [6] = experiment: Test G Post-Emergence Protocol; details: Zea mays, post-emergence, 312 h, read-out: Corn damage rating; for plant injury at 15.625 g/ha: 15.625 g ai/ha, evaluated after 13 days (100=total damage to plant; 0=no damage to plant); for plant injury at 62.5 g/ha: 62.5 g ai/ha; for plant injury at 62.5 g/ha / plant injury at 250 g/ha: evaluated after 13 days, 100=total damage to plant, 0=no damage to plant; for plant injury at 250 g/ha: 250 g ai/ha
Method in brief: as §1

[7] = tested on: velvetleaf (Abutilon theophrasti); experiment: Test G Pre-Emergence Protocol; details: Abutilon theophrasti, pre-emergence, 312 h, evaluated after 13 days; for pest or weed control at 15.625 g/ha: 15.625 g ai/ha; for pest or weed control at 15.625 g/ha / pest or weed control at 250 g/ha: read-out: Velvetleaf damage rating (100=total damage to plant; 0=no damage to plant); for pest or weed control at 62.5 g/ha: 62.5 g ai/ha, 100=total damage to plant, 0=no damage to plant, read-out: Velvetleaf damage rating; for pest or weed control at 250 g/ha: 250 g ai/ha
Method in brief: (§2)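 Glasshouse pre-emergence test: soil-sown seeds, sprayed after 1 d at 15.625, 62.5 or 250 g/ha. Conditions 24/16° C day/night, 14 h light, 65% humidity, watering twice daily. Rating 13 d post-spray (100 = total damage).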

[8] = tested on: giant foxtail (Setaria faberi); experiment: Test G Pre-Emergence Protocol; details: Setaria faberi, pre-emergence, 312 h, evaluated after 13 days; for pest or weed control at 15.625 g/ha: 15.625 g ai/ha; for pest or weed control at 15.625 g/ha / pest or weed control at 250 g/ha: read-out: Foxtail, Giant damage rating (100=total damage to plant; 0=no damage to plant); for pest or weed control at 62.5 g/ha: 62.5 g ai/ha, 100=total damage to plant, 0=no damage to plant, read-out: Foxtail, Giant damage rating; for pest or weed control at 250 g/ha: 250 g ai/ha
Method in brief: as §2

[9] = tested on: barnyardgrass (Echinochloa crus-galli); experiment: Test G Pre-Emergence Protocol; details: Echinochloa crus-galli, pre-emergence, 312 h, evaluated after 13 days; for pest or weed control at 15.625 g/ha: 15.625 g ai/ha; for pest or weed control at 15.625 g/ha / pest or weed control at 250 g/ha: read-out: Barnyardgrass damage rating (100=total damage to plant; 0=no damage to plant); for pest or weed control at 62.5 g/ha: 62.5 g ai/ha, 100=total damage to plant, 0=no damage to plant, read-out: Barnyardgrass damage rating; for pest or weed control at 250 g/ha: 250 g ai/ha
Method in brief: as §2

[10] = tested on: ivy-leaved morning glory (Ipomoea hederacea); experiment: Test G Pre-Emergence Protocol; details: Ipomoea, pre-emergence, 312 h, evaluated after 13 days; for pest or weed control at 15.625 g/ha: 15.625 g ai/ha; for pest or weed control at 15.625 g/ha / pest or weed control at 250 g/ha: read-out: Morningglory, Ivy-leaved damage rating (100=total damage to plant; 0=no damage to plant); for pest or weed control at 62.5 g/ha: 62.5 g ai/ha, 100=total damage to plant, 0=no damage to plant, read-out: Morningglory, Ivy-leaved damage rating; for pest or weed control at 250 g/ha: 250 g ai/ha
Method in brief: as §2

[11] = tested on: redroot pigweed (Amaranthus retroflexus); experiment: Test G Pre-Emergence Protocol; details: Amaranthus retroflexus, pre-emergence, 312 h, evaluated after 13 days; for pest or weed control at 15.625 g/ha: 15.625 g ai/ha; for pest or weed control at 15.625 g/ha / pest or weed control at 250 g/ha: read-out: Pigweed, Redroot damage rating (100=total damage to plant; 0=no damage to plant); for pest or weed control at 62.5 g/ha: 62.5 g ai/ha, 100=total damage to plant, 0=no damage to plant, read-out: Pigweed, Redroot damage rating; for pest or weed control at 250 g/ha: 250 g ai/ha
Method in brief: as §2

corn (Zea mays) [12] = experiment: Test G Pre-Emergence Protocol; details: Zea mays, pre-emergence, 312 h, evaluated after 13 days; for plant injury at 15.625 g/ha: 15.625 g ai/ha; for plant injury at 15.625 g/ha / plant injury at 250 g/ha: read-out: Corn damage rating (100=total damage to plant; 0=no damage to plant); for plant injury at 62.5 g/ha: 62.5 g ai/ha, 100=total damage to plant, 0=no damage to plant, read-out: Corn damage rating; for plant injury at 250 g/ha: 250 g ai/ha
Method in brief: as §2

Row | Structure (SMILES) | pest or weed control at 15.625 g/ha [1] [%] | pest or weed control at 62.5 g/ha [1] [%] | pest or weed control at 250 g/ha [1] [%] | pest or weed control at 15.625 g/ha [2] [%] | pest or weed control at 62.5 g/ha [2] [%] | pest or weed control at 250 g/ha [2] [%] | pest or weed control at 15.625 g/ha [3] [%] | pest or weed control at 62.5 g/ha [3] [%] | pest or weed control at 250 g/ha [3] [%] | pest or weed control at 15.625 g/ha [4] [%] | pest or weed control at 62.5 g/ha [4] [%] | pest or weed control at 250 g/ha [4] [%] | pest or weed control at 15.625 g/ha [5] [%] | pest or weed control at 62.5 g/ha [5] [%] | pest or weed control at 250 g/ha [5] [%] | plant injury at 15.625 g/ha (corn (Zea mays) [6]) [%] | plant injury at 62.5 g/ha (corn (Zea mays) [6]) [%] | plant injury at 250 g/ha (corn (Zea mays) [6]) [%] | pest or weed control at 15.625 g/ha [7] [%] | pest or weed control at 62.5 g/ha [7] [%] | further results
1 | Cc1c(F)cccc1NC(=O)[C@@H]1C(=O)N(C)C[C@H]1c1cccc(C(C)(C)F)c1 (racemic) [Compound 1827] | 0 | 0 | 40 | 50 | 80 | 80 | 0 | 70 | 80 | 0 | 10 | 10 | 0 | 0 | 0 | 0 | 10 | 60 | 0 | 0 | pest or weed control at 250 g/ha [7]: 10%; pest or weed control at 15.625 g/ha [8]: 40%; pest or weed control at 62.5 g/ha [8]: 90%; pest or weed control at 250 g/ha [8]: 90%; pest or weed control at 15.625 g/ha [9]: 0%; pest or weed control at 62.5 g/ha [9]: 80%; pest or weed control at 250 g/ha [9]: 90%; pest or weed control at 15.625 g/ha [10]: 0%; pest or weed control at 62.5 g/ha [10]: 0%; pest or weed control at 250 g/ha [10]: 20%; pest or weed control at 15.625 g/ha [11]: 0%; pest or weed control at 62.5 g/ha [11]: 0%; pest or weed control at 250 g/ha [11]: 0%; plant injury at 15.625 g/ha (corn (Zea mays) [12]): 0%; plant injury at 62.5 g/ha (corn (Zea mays) [12]): 0%; plant injury at 250 g/ha (corn (Zea mays) [12]): 50%
2 | C=C(C)c1cccc([C@@H]2CN(C)C(=O)[C@H]2C(=O)Nc2cccc(F)c2C)c1 (racemic) [Compound 1828] | 0 | 20 | 10 | 70 | 80 | 80 | 30 | 80 | 80 | 20 | 60 | 70 | 0 | 0 | 20 | 0 | 10 | 70 | 0 | 0 | pest or weed control at 250 g/ha [7]: 30%; pest or weed control at 15.625 g/ha [8]: 80%; pest or weed control at 62.5 g/ha [8]: 90%; pest or weed control at 250 g/ha [8]: 90%; pest or weed control at 15.625 g/ha [9]: 70%; pest or weed control at 62.5 g/ha [9]: 80%; pest or weed control at 250 g/ha [9]: 90%; pest or weed control at 15.625 g/ha [10]: 0%; pest or weed control at 62.5 g/ha [10]: 0%; pest or weed control at 250 g/ha [10]: 30%; pest or weed control at 15.625 g/ha [11]: 0%; pest or weed control at 62.5 g/ha [11]: 0%; pest or weed control at 250 g/ha [11]: 0%; plant injury at 15.625 g/ha (corn (Zea mays) [12]): 0%; plant injury at 62.5 g/ha (corn (Zea mays) [12]): 10%; plant injury at 250 g/ha (corn (Zea mays) [12]): 70%
